Measurements from patent US20030073625A1, “Methods of preventing ventilator associated pneumonia by oral administration of antimicrobial IB-367 peptides” (priority 2001, published 2003).
Where no end group is shown, it is not given here.

Experiments:
[1] = tested on: bacteria; details: repeated subcultures at one-half MIC; Steinberg et al., 1997; cited from earlier work
[2] = tested on: polymicrobial flora of the oral cavity; assay: Microbicidal activity in human saliva; assay type: cell-based

| Substance | development of resistance [1] | microbicidal activity in human saliva [2] |
| --- | --- | --- |
| PG-1: protegrin peptide PG-1 (RGGRLCYCRRRFCVCVGR; ends and bridges not checked; cysteine pairing not given here; UniProt P32194 131-148, looked up) | did not result in the development of resistance | – |
| RGGLCYCRGRFCVCVGR [native IB-367] | – | retains its microbicidal activity |
